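Each compound was tested at five concentrations against cells in 96-well plates for 48 hours. Abbreviation: GI50, concentration required for 50% inhibition of growth. TGI denotes the concentration required for complete inhibition of growth.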
Assays:
Test in all cases: growth of human tumour cells (NCI), 48 h
[1] = test system: 786-0 renal
[2] = test system: A498 renal
[3] = test system: A549 NSCLC
[4] = test system: ACHN renal
[5] = test system: BT-549 breast
[6] = test system: CAKI-1 renal
[7] = test system: CCRF-CEM leukemia
[8] = test system: COLO 205 colon
[9] = test system: DU-145 prostate
[10] = test system: EKVX NSCLC
[11] = test system: HCC-2998 colon
[12] = test system: HCT-116 colon
[13] = test system: HCT-15 colon
[14] = test system: HL-60(TB) leukemia
[15] = test system: HOP-62 NSCLC
[16] = test system: HOP-92 NSCLC
[17] = test system: HS 578T breast
[18] = test system: HT29 colon
[19] = test system: IGROV1 ovarian
[20] = test system: K-562 leukemia
[21] = test system: KM12 colon
[22] = test system: LOX IMVI melanoma
[23] = test system: M14 melanoma
[24] = test system: MALME-3M melanoma
[25] = test system: MCF7 breast
[26] = test system: MDA-MB-231 breast
[27] = test system: MDA-MB-435
[28] = test system: MOLT-4 leukemia
[29] = test system: NCI-H226 lung
[30] = test system: NCI-H23 lung
[31] = test system: NCI-H460 lung
[32] = test system: NCI-H522 lung
[33] = test system: NCI/ADR-RES ovarian
[34] = test system: OVCAR-3 ovarian
[35] = test system: OVCAR-4 ovarian
[36] = test system: OVCAR-5 ovarian
[37] = test system: OVCAR-8 ovarian
[38] = test system: PC-3 prostate
[39] = test system: RPMI-8226 leukemia
[40] = test system: RXF 393 renal
[41] = test system: SF-268 CNS
[42] = test system: SF-295 CNS
[43] = test system: SF-539 CNS
[44] = test system: SK-MEL-2 melanoma
[45] = test system: SK-MEL-5 melanoma
[46] = test system: SK-OV-3 ovarian
[47] = test system: SN12C renal
[48] = test system: SNB-19 CNS
[49] = test system: SNB-75 CNS
[50] = test system: SR leukemia
[51] = test system: SW-620 colon
[52] = test system: T-47D breast
[53] = test system: TK-10 renal
[54] = test system: U251 CNS
[55] = test system: UACC-257 melanoma
[56] = test system: UACC-62 melanoma
[57] = test system: UO-31 renal

COc1cc(-c2nccn2-c2ccc3ccccc3c2)cc(OC)c1OC
GI50 [1]: 56.4 nM | TGI [1]: 12500 nM | GI50 [2]: 77.8 nM | TGI [2]: 1360 nM | GI50 [3]: 740 nM | TGI [3]: > 65500 nM | GI50 [4]: 2590 nM | TGI [4]: 49600 nM | GI50 [5]: 99.5 nM | TGI [5]: 15600 nM | GI50 [6]: < 26.8 nM | TGI [6]: 47000 nM | GI50 [7]: 48 nM | TGI [7]: 32500 nM | GI50 [8]: 40.2 nM | TGI [8]: 2440 nM | GI50 [9]: 84.4 nM | TGI [9]: > 32300 nM | GI50 [10]: 379 nM | TGI [10]: 48100 nM | GI50 [11]: < 36.7 nM | TGI [11]: 1660 nM | GI50 [12]: 40 nM | TGI [12]: 11700 nM | GI50 [13]: < 22.6 nM | TGI [13]: 12600 nM | GI50 [14]: < 17.6 nM | TGI [14]: 1330 nM | GI50 [15]: 67.5 nM | TGI [15]: 18300 nM | GI50 [16]: 10100 nM | TGI [16]: 31400 nM | GI50 [17]: 66.8 nM | TGI [17]: 71500 nM | GI50 [18]: < 19.6 nM | TGI [18]: 14000 nM | GI50 [19]: 1110 nM | TGI [19]: > 41200 nM | GI50 [20]: < 15.6 nM | TGI [20]: > 32300 nM | GI50 [21]: < 16.6 nM | TGI [21]: 18200 nM | GI50 [22]: 1530 nM | TGI [22]: 19000 nM | GI50 [23]: 61.3 nM | TGI [23]: 12700 nM | GI50 [24]: 16000 nM | TGI [24]: 47600 nM | GI50 [25]: < 13 nM | TGI [25]: 15800 nM | GI50 [26]: 333 nM | TGI [26]: 22600 nM | TGI [27]: 51.1 nM | GI50 [28]: 70.8 nM | TGI [28]: 17000 nM | GI50 [29]: 206 nM | TGI [29]: 20300 nM | GI50 [30]: 78.9 nM | TGI [30]: 5530 nM | GI50 [31]: < 21.5 nM | TGI [31]: 11700 nM | GI50 [32]: < 21.8 nM | TGI [32]: 20400 nM | TGI [33]: 27.3 nM | GI50 [34]: < 17.6 nM | TGI [34]: 1610 nM | GI50 [35]: 2040 nM | TGI [35]: 44600 nM | GI50 [36]: 469 nM | TGI [36]: 24200 nM | GI50 [37]: 489 nM | TGI [37]: > 88000 nM | GI50 [38]: 45.3 nM | TGI [38]: > 100000 nM | GI50 [39]: 190 nM | TGI [39]: 17500 nM | GI50 [40]: 254 nM | TGI [40]: 28700 nM | GI50 [41]: 335 nM | TGI [41]: 18900 nM | GI50 [42]: < 15.9 nM | TGI [42]: 15500 nM | GI50 [43]: 46.6 nM | TGI [43]: 625 nM | GI50 [44]: 6200 nM | TGI [44]: > 50300 nM | GI50 [45]: < 19.5 nM | TGI [45]: 4450 nM | GI50 [46]: 990 nM | TGI [46]: 74000 nM | GI50 [47]: 666 nM | TGI [47]: 22600 nM | GI50 [48]: 98.5 nM | TGI [48]: 24300 nM | GI50 [49]: 60.5 nM | TGI [49]: 24800 nM | GI50 [50]: < 14.7 nM | TGI [50]: 7060 nM | GI50 [51]: 24 nM | TGI [51]: 25200 nM | GI50 [52]: 17700 nM | TGI [52]: 94800 nM | GI50 [53]: 2940 nM | TGI [53]: > 87600 nM | GI50 [54]: 54.7 nM | TGI [54]: 16700 nM | GI50 [55]: 12900 nM | TGI [55]: 41300 nM | GI50 [56]: < 17.7 nM | TGI [56]: 14500 nM | GI50 [57]: 1650 nM | TGI [57]: > 62600 nM
